Results: patent publication US8168667B2 (Galapagos NV, priority 2006, dated 2012)

These compounds were tested against T1, human androgen receptor (hAR) (Homo sapiens, UniProt P10275) (assay: Functional response test: hAR transactivation (luciferase reporter) in HALP2 cells). Conditions: not given.
T1 sequence (P10275 1-920): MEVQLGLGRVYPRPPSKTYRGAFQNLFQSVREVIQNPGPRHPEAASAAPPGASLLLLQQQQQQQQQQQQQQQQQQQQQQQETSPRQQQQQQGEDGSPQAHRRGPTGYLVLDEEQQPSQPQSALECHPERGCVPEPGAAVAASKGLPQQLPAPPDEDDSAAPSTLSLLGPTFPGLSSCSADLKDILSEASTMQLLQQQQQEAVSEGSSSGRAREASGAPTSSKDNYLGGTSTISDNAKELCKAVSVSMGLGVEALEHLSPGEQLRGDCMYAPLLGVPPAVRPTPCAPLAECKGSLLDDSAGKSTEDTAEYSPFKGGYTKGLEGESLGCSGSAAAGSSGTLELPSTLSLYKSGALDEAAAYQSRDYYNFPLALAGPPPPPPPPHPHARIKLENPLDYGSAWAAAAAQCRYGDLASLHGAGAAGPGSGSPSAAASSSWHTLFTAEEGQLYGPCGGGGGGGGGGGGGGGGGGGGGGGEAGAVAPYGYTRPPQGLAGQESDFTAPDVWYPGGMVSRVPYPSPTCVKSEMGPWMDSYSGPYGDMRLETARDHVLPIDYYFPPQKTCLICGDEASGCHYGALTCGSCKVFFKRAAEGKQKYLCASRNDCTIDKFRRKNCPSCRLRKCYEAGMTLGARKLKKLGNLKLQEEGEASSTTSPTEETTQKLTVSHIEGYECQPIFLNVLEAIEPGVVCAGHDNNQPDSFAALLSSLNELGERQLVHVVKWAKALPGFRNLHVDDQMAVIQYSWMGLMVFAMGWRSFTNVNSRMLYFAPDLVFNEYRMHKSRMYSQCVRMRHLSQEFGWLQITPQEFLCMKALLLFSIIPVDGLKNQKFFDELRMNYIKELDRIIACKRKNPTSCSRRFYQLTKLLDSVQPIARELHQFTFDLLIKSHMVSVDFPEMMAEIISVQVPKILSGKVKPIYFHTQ
Assay type: cell-based
In short: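 HALP2 cells are HeLa cells stably transfected with CMV-driven hAR and a probasin ARE-luciferase reporter. They were seeded 24 h ahead, then exposed to compounds for 20 hours at 37° C in phenol red-free DMEM with 5% desteroided serum. Luciferase luminescence was measured after lysis; for antagonist mode, compounds were tested against increasing DHT concentrations.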

SMILES | KSchild (nM) potency
CN1C(=O)N(c2ccc(C#N)c(C(F)(F)F)c2)C(=O)[C@]1(CF)c1ccc(O)cc1 [Example 177.1, (S)-4-[4-fluoromethyl-4-(4-hydroxyphenyl)-3-methyl-2,5-dioxoimidazolidin-1-yl]-2-trifluoromethylbenzonitrile] | 310 nM
CN1C(=O)N(c2ccc(C#N)c(C(F)(F)F)c2)C(=O)[C@@]1(CF)c1ccc(O)cc1 [Example 177.2, (R)-4-[4-fluoromethyl-4-(4-hydroxyphenyl)-3-methyl-2,5-dioxoimidazolidin-1-yl]-2-trifluoromethylbenzonitrile] | 40.4 nM
CN1C(=O)N(c2ccc(C#N)c(C(F)(F)F)c2)C(=O)C1(C)c1ccc(O)cc1F (centres unmarked) [Example 178, 4-[3,4-dimethyl-2,5-dioxo-4-(2-fluoro-4-hydroxyphenyl)imidazolidin-1-yl]-2-trifluoromethylbenzonitrile] | 10 nM
CN1C(=O)N(c2ccc(C#N)c(C(F)(F)F)c2)C(=O)C1(c1ccc(O)cc1)C(F)(F)F (centres unmarked) [Example 179, 4-[2,5-dioxo-4-(4-hydroxyphenyl)-3-methyl-4-trifluoromethylimidazolidin-1-yl]-2-trifluoromethylbenzonitrile] | 15 nM
Cc1cc(O)ccc1C1(C)C(=O)N(c2ccc(C#N)c(C(F)(F)F)c2)C(=O)N1C (centres unmarked) [Example 180, 4-[3,4-dimethyl-2,5-dioxo-4-(4-hydroxy-2-methylphenyl)imidazolidin-1-yl]-2-trifluoromethylbenzonitrile] | 8 nM
CN1C(=O)N(c2ccc(C#N)c(C(F)(F)F)c2)C(=O)C12CCc1cc(O)ccc12 (centres unmarked) [Example 181, 4-[2′,3′-dihydro-2,5-dioxo-5′-hydroxy-3-methylspiro(imidazolidin-4,1′(1H)inden)-1-yl]-2-trifluoromethylbenzonitrile] | 6 nM
CCCC1(c2ccc(O)cc2)C(=O)N(c2ccc(C#N)c(C(F)(F)F)c2)C(=O)N1C (centres unmarked) [Example 182.1, 4-[2,5-dioxo-4-(4-hydroxyphenyl)-3-methyl-4-propylimidazolidin-1-yl]-2-trifluoromethylbenzonitrile] | 15 nM
CSCN1C(=O)N(c2ccc(C#N)c(C(F)(F)F)c2)C(=O)C1(C)c1ccc(O)cc1 (centres unmarked) [Example 222.2] | 15 nM
COC(=O)CN1C(=O)N(c2ccc(C#N)c(C(F)(F)F)c2)C(=O)C1(C)c1ccc(O)cc1 (centres unmarked) [Example 227, 4-[2,5-dioxo-4-(4-hydroxyphenyl)-3-[(methoxycarbonyl)methyl]-4-methylimidazolidin-1-yl]-2-trifluoromethylbenzonitrile] | 3.46 nM
CC1(c2ccc(O)cc2)C(=O)N(c2ccc(C#N)c(C(F)(F)F)c2)C(=O)N1CO (centres unmarked) [Example 228.1, 4-[2,5-dioxo-3-hydroxymethyl-4-(4-hydroxyphenyl)-4-methylimidazolidin-1-yl]-2-trifluoromethylbenzonitrile] | 150 nM
CC1(c2ccc(O)cc2)C(=O)N(c2ccc(C#N)c(C(F)(F)F)c2)C(=O)N1CC(N)=O (centres unmarked) [Example 231, 4-[3-[(aminocarbonyl)methyl]-2,5-dioxo-4-(4-hydroxyphenyl)-4-methylimidazolidin-1-yl]-2-trifluoromethylbenzonitrile] | 60 nM
CCC(=O)CN1C(=O)N(c2ccc(C#N)c(C(F)(F)F)c2)C(=O)C1(C)c1ccc(O)cc1 (centres unmarked) [Example 233, 4-[2,5-dioxo-4-(4-hydroxyphenyl)-4-methyl-3-(2-oxobutyl)imidazolidin-1-yl]-2-trifluoromethylbenzonitrile] | 2.45 nM
COC(=O)CCN1C(=O)N(c2ccc(C#N)c(C(F)(F)F)c2)C(=O)C1(C)c1ccc(O)cc1 (centres unmarked) [Example 234, 4-[2,5-dioxo-4-(4-hydroxyphenyl)-3-[2-(methoxycarbonyl)ethyl]-4-methylimidazolidin-1-yl]-2-trifluoromethylbenzonitrile] | 15 nM
CC(=O)CN1C(=O)N(c2ccc(C#N)c(C(F)(F)F)c2)C(=O)C1(C)c1ccc(O)cc1 (centres unmarked) [Example 235, 4-[2,5-dioxo-4-(4-hydroxyphenyl)-4-methyl-3-(2-oxopropyl)imidazolidin-1-yl]-2-trifluoromethylbenzonitrile] | 8 nM
CCOC(=O)CCN1C(=O)N(c2ccc(C#N)c(C(F)(F)F)c2)C(=O)C1(C)c1ccc(O)cc1 (centres unmarked) [Example 236, 4-[2,5-dioxo-3-[2-(ethoxycarbonyl)ethyl]-4-(4-hydroxyphenyl)-4-methylimidazolidin-1-yl]-2-trifluoromethylbenzonitrile] | 15 nM
CC1(c2ccc(O)cc2)C(=O)N(c2ccc(C#N)c(C(F)(F)F)c2)C(=O)N1CC#N (centres unmarked) [Example 237, 4-[3-(cyanomethyl)-2,5-dioxo-4-(4-hydroxyphenyl)-4-methylimidazolidin-1-yl]-2-trifluoromethylbenzonitrile] | 8 nM
COCCOCN1C(=O)N(c2ccc(C#N)c(C(F)(F)F)c2)C(=O)C1(C)c1ccc(O)cc1 (centres unmarked) [Example 238, 4-[2,5-dioxo-4-(4-hydroxyphenyl)-3-[(2-methoxyethoxy)methyl]-4-methylimidazolidin-1-yl]-2-trifluoromethylbenzonitrile] | 15 nM
CC1(c2ccc(O)cc2)C(=O)N(c2ccc(C#N)c(C(F)(F)F)c2)C(=O)N1CCO (centres unmarked) [Example 239, 4-[2,5-dioxo-3-(2-hydroxyethyl)-4-(4-hydroxyphenyl)-4-methylimidazolidin-1-yl]-2-trifluoromethylbenzonitrile] | 10 nM
CC1(c2ccc(O)cc2)C(=O)N(c2ccc(C#N)c(C(F)(F)F)c2)C(=O)N1CC#CCO (centres unmarked) [Example 243, 4-[2,5-dioxo-3-(4-hydroxy-2-butynyl)-4-(4-hydroxyphenyl)-4-methylimidazolidinyl-1-yl]-2-trifluoromethylbenzonitrile] | 4.56 nM

Same assay, conditions: agonism; HALP2 cells (HeLa, hAR + ARE-luciferase), 20 hours at 37° C.

SMILES | EC50
CC(=O)OCC#CCN1C(=O)N(c2ccc(Cl)c(Cl)c2)C(=O)C1(C)c1ccc(O)cc1 (centres unmarked) [Example 223, 4-[1-(3,4-dichlorophenyl)-2,5-dioxo-4-methyl-4-(4-hydroxyphenyl)imidazolidin-3-yl]-2-butynyl acetate] | 12.3 nM
CC1(c2ccc(O)cc2)C(=O)N(c2ccc(Cl)c(Cl)c2)C(=O)N1CC#CCO (centres unmarked) [Example 242, 1-(3,4-dichlorophenyl)-3-(4-hydroxy-2-butynyl)-4-(4-hydroxyphenyl)-4-methylimidazolidine-2,5-dione] | 12.3 nM

Same assay, conditions: antagonism; concentration which increases the EC50 of the DHT by a factor of 2, Schild regression; HALP2 cells

SMILES | KSchild (nM) potency
CCC1(c2ccc(O)cc2)C(=O)N(c2ccc(C#N)c(C(F)(F)F)c2)C(=O)N1C (centres unmarked) [Example 183, 4-[2,5-dioxo-4-ethyl-4-(4-hydroxyphenyl)-3-methylimidazolidin-1-yl]-2-trifluoromethylbenzonitrile] | 2 nM
CN1C(=O)N(c2ccc(Cl)c(Cl)c2)C(=O)C1(CO)c1ccc(O)cc1 (centres unmarked) [Example 190, 1-(3,4-dichlorophenyl)-4-hydroxymethyl-4-(4-hydroxyphenyl)-3-methylimidazolidine-2,5-dione] | 0.37 nM
CC1(c2ccc(O)cc2)C(=O)N(c2ccc(C#N)c(C(F)(F)F)c2)C(=O)N1CS(C)(=O)=O (centres unmarked) [Example 222.3, 4-[2,5-dioxo-4-(4-hydroxyphenyl)-4-methyl-3-[(methylsulphonyl)methyl]imidazolidin-1-yl]-2-trifluoromethylbenzonitrile] | 200 nM
CC(=O)OCC#CCN1C(=O)N(c2ccc(Cl)c(Cl)c2)C(=O)C1(C)c1ccc(O)cc1 (centres unmarked) [Example 223, 4-[1-(3,4-dichlorophenyl)-2,5-dioxo-4-methyl-4-(4-hydroxyphenyl)imidazolidin-3-yl]-2-butynyl acetate] | 12.25 nM
CC1(c2ccc(O)cc2)C(=O)N(c2ccc(Cl)c(Cl)c2)C(=O)N1CC#CCO (centres unmarked) [Example 242, 1-(3,4-dichlorophenyl)-3-(4-hydroxy-2-butynyl)-4-(4-hydroxyphenyl)-4-methylimidazolidine-2,5-dione] | 12.25 nM
